Reference: ChEMBL document CHEMBL5131474, “Resveratrol inhibited hepatocyte apoptosis and alleviated liver fibrosis through miR-190a-5p /HGF axis” (2022)
The source made the active and inactive calls. The calls are words filed in the database; no cut-off is given here.

Columns and labels:
Hepatocyte [1] = experiment: Induction of apoptosis in TGF-beta1-stimulated C57/B6J mouse primary hepatocytes assessed as reversal of miR-190a-5p inhibitor induced decrease in cleaved-caspase 3 expression at 10 uM by Western blot analysis; assay type: functional, cell-based
Hepatocyte [2] = experiment: Inhibition of TGF-beta1 induced apoptosis in C57/B6J mouse primary hepatocytes assessed as live cells at 10 uM in presence of miR-190a-5p inhibitor by Annexin-V-FITC-H and PI staining based flow cytometry analysis (reference value: 61.65 %); assay type: functional; set-up: scale not given: the % may be the effect or the level left
Hepatocyte [3] = experiment: Induction of apoptosis in TGF-beta1-stimulated C57/B6J mouse primary hepatocytes assessed as reversal of miR-190a-5p inhibitor induced increase in Bcl-2 expression at 10 uM by Western blot analysis; assay type: functional, cell-based
Hepatocyte [4] = experiment: Downregulation of TGF-beta1 and miR-190a-5p inhibitor induced HGF mRNA expression in C57/B6J mouse primary hepatocytes at 10 uM by qRT-PCR analysis; assay type: functional, cell-based
Hepatocyte [5] = experiment: Downregulation of TGF-beta1 and miR-190a-5p inhibitor induced HGF protein expression C57/B6J mouse primary hepatocytes at 10 uM by Western blot analysis; assay type: functional, cell-based
Hepatocyte [6] = experiment: Inhibition of TGF-beta1 induced apoptosis in C57/B6J mouse primary hepatocytes assessed as dead cells at 10 uM in presence of miR-190a-5p inhibitor by Annexin-V-FITC-H and PI staining based flow cytometry analysis (reference value: 5.49 %); assay type: functional; set-up: scale not given: the % may be the effect or the level left
Hepatocyte [7] = experiment: Inhibition of TGF-beta1 induced apoptosis in C57/B6J mouse primary hepatocytes assessed as early apoptotic cells at 10 uM in presence of miR-190a-5p inhibitor by Annexin-V-FITC-H and PI staining based flow cytometry analysis (reference value: 18.90 %); assay type: functional; set-up: scale not given: the % may be the effect or the level left
Hepatocyte [8] = experiment: Inhibition of TGF-beta1 induced apoptosis in C57/B6J mouse primary hepatocytes assessed as late apoptotic cells at 10 uM in presence of miR-190a-5p inhibitor by Annexin-V-FITC-H and PI staining based flow cytometry analysis (reference value: 13.96 %); assay type: functional; set-up: scale not given: the % may be the effect or the level left
Hepatocyte [9] = experiment: Inhibition of TGF-beta1 induced apoptosis in C57/B6J mouse primary hepatocytes assessed as dead cells at 25 uM by Annexin-V-FITC-H and PI staining based flow cytometry analysis (reference value: 3.09 %); assay type: functional; set-up: scale not given: the % may be the effect or the level left
Mus musculus [10] = experiment: Antifibrotic activity in CCL-4 induced liver fibrosis C57/B6J mouse model assessed as reduction in hydroxyproline level in liver at 100 mg/kg/day, ip measured after 72 hrs post last dose; assay type: functional, organism-based
Mus musculus [11] = experiment: Antifibrotic activity in CCL-4 induced liver fibrosis C57/B6J mouse model assessed as reduction in serum AST level at 100 mg/kg/day, ip measured after 72 hrs post last dose by ELISA; assay type: functional, organism-based
Hepatocyte [12] = experiment: Inhibition of TGF-beta1 induced apoptosis in C57/B6J mouse primary hepatocytes assessed as dead cells at 10 uM by Annexin-V-FITC-H and PI staining based flow cytometry analysis (reference value: 3.09 %); assay type: functional; set-up: scale not given: the % may be the effect or the level left
Mus musculus [13] = experiment: Antifibrotic activity in CCL-4 induced liver fibrosis C57/B6J mouse model assessed as increase in HGF expression at 100 mg/kg/day, ip measured after 72 hrs post last dose by Western blot analysis; assay type: functional, organism-based
Hepatocyte [14] = experiment: Inhibition of TGF-beta1 induced apoptosis in C57/B6J mouse primary hepatocytes assessed as late apoptotic cells at 10 uM by Annexin-V-FITC-H and PI staining based flow cytometry analysis (reference value: 12.12 %); assay type: functional; set-up: scale not given: the % may be the effect or the level left
Hepatocyte [15] = experiment: Inhibition of TGF-beta1 induced apoptosis in C57/B6J mouse primary hepatocytes assessed as dead cells by Annexin-V-FITC-H and PI staining based flow cytometry analysis (reference value: 3.68 %); assay type: functional; set-up: scale not given: the % may be the effect or the level left
Hepatocyte [16] = experiment: Inhibition of TGF-beta1 induced apoptosis in C57/B6J mouse primary hepatocytes assessed as early apoptotic cells at 50 uM by Annexin-V-FITC-H and PI staining based flow cytometry analysis (reference value: 18.71 %); assay type: functional; set-up: scale not given: the % may be the effect or the level left
Hepatocyte [17] = experiment: Inhibition of TGF-beta1 induced apoptosis in C57/B6J mouse primary hepatocytes assessed as dead cells at 50 uM by Annexin-V-FITC-H and PI staining based flow cytometry analysis (reference value: 3.09 %); assay type: functional; set-up: scale not given: the % may be the effect or the level left
HepG2 = experiment: Downregulation of miR-190a-5p expression in TGF-beta induced human HepG2 cells at 10 to 50 uM incubated for 4 hrs by qRT-PCR analysis; assay type: functional, cell-based; conditions: dose 10-50 µM
Hepatocyte [18] = experiment: Inhibition of TGF-beta1 induced apoptosis in C57/B6J mouse primary hepatocytes assessed as late apoptotic cells at 25 uM by Annexin-V-FITC-H and PI staining based flow cytometry analysis (reference value: 12.12 %); assay type: functional; set-up: scale not given: the % may be the effect or the level left
Hepatocyte [19] = experiment: Inhibition of TGF-beta1 induced apoptosis in C57/B6J mouse primary hepatocytes assessed as increase in Bcl-2 expression at 10 to 50 uM by Western blot analysis; assay type: functional, cell-based; conditions: dose 10-50 µM
Hepatocyte [20] = experiment: Inhibition of TGF-beta1 induced apoptosis in C57/B6J mouse primary hepatocytes assessed as live cells at 10 uM by Annexin-V-FITC-H and PI staining based flow cytometry analysis (reference value: 66.08 %); assay type: functional; set-up: scale not given: the % may be the effect or the level left
Mus musculus [21] = experiment: Antifibrotic activity in CCL-4 induced liver fibrosis C57/B6J mouse model assessed as increase in albumin level in serum at 100 mg/kg/day, ip measured after 72 hrs post last dose by ELISA; assay type: functional, organism-based
Mus musculus [22] = experiment: Antifibrotic activity in CCL-4 induced liver fibrosis C57/B6J mouse model assessed as reduction in serum ALT level at 100 mg/kg/day, ip measured after 72 hrs post last dose by ELISA; assay type: functional, organism-based
Hepatocyte [23] = experiment: Inhibition of TGF-beta1 induced apoptosis in C57/B6J mouse primary hepatocytes assessed as early apoptotic cells by Annexin-V-FITC-H and PI staining based flow cytometry analysis (reference value: 19.89 %); assay type: functional; set-up: scale not given: the % may be the effect or the level left
Hepatocyte [24] = experiment: Inhibition of TGF-beta1 induced apoptosis in C57/B6J mouse primary hepatocytes assessed as early apoptotic cells at 10 uM by Annexin-V-FITC-H and PI staining based flow cytometry analysis (reference value: 18.71 %); assay type: functional; set-up: scale not given: the % may be the effect or the level left
Hepatocyte [25] = experiment: Inhibition of TGF-beta1 induced apoptosis in C57/B6J mouse primary hepatocytes assessed as live cells in presence of miR-190a-5p mimic by Annexin-V-FITC-H and PI staining based flow cytometry analysis (reference value: 64.40 %); assay type: functional; set-up: scale not given: the % may be the effect or the level left
Hepatocyte [26] = experiment: Inhibition of TGF-beta1 induced apoptosis in C57/B6J mouse primary hepatocytes assessed as live cells at 50 uM by Annexin-V-FITC-H and PI staining based flow cytometry analysis (reference value: 66.08 %); assay type: functional; set-up: scale not given: the % may be the effect or the level left
Mus musculus [27] = experiment: Antifibrotic activity in CCL-4 induced liver fibrosis C57/B6J mouse model assessed as reduction in disorganized and interlaced fibers at 100 mg/kg/day, ip measured after 72 hrs post last dose by HE/Sirus red/TUNEL staining based analysis; assay type: functional, organism-based
Hepatocyte [28] = experiment: Inhibition of TGF-beta1 induced apoptosis in C57/B6J mouse primary hepatocytes assessed as late apoptotic cells by Annexin-V-FITC-H and PI staining based flow cytometry analysis (reference value: 12.03 %); assay type: functional; set-up: scale not given: the % may be the effect or the level left
Hepatocyte [29] = experiment: Inhibition of TGF-beta1 induced apoptosis in C57/B6J mouse primary hepatocytes assessed as late apoptotic cells at 50 uM by Annexin-V-FITC-H and PI staining based flow cytometry analysis (reference value: 12.12 %); assay type: functional; set-up: scale not given: the % may be the effect or the level left
Hepatocyte [30] = experiment: Inhibition of TGF-beta1 induced apoptosis in C57/B6J mouse primary hepatocytes assessed as late apoptotic cells in presence of miR-190a-5p mimic by Annexin-V-FITC-H and PI staining based flow cytometry analysis (reference value: 12.03 %); assay type: functional; set-up: scale not given: the % may be the effect or the level left
Hepatocyte [31] = experiment: Inhibition of TGF-beta1 induced apoptosis in C57/B6J mouse primary hepatocytes assessed as dead cells in presence of miR-190a-5p mimic by Annexin-V-FITC-H and PI staining based flow cytometry analysis (reference value: 3.68 %); assay type: functional; set-up: scale not given: the % may be the effect or the level left
Mus musculus [32] = experiment: Antifibrotic activity in CCL-4 induced liver fibrosis C57/B6J mouse model assessed as reduction in COL1A1 mRNA expression at 100 mg/kg/day, ip measured after 72 hrs post last dose by qRT-PCR analysis; assay type: functional, organism-based
Mus musculus [33] = experiment: Antifibrotic activity in CCL-4 induced liver fibrosis C57/B6J mouse model assessed as reduction in miR-190a-5p expression in liver at 100 mg/kg/day, ip measured after 72 hrs post last dose by qRT-PCR analysis; assay type: functional, organism-based
Hepatocyte [34] = experiment: Inhibition of TGF-beta1 induced apoptosis in C57/B6J mouse primary hepatocytes assessed as early apoptotic cells in presence of miR-190a-5p mimic by Annexin-V-FITC-H and PI staining based flow cytometry analysis (reference value: 19.89 %); assay type: functional; set-up: scale not given: the % may be the effect or the level left
Hepatocyte [35] = experiment: Downregulation of miR-190a-5p expression in TGF-beta induced C57/B6J mouse primary hepatocytes at 10 to 50 uM incubated for 4 hrs by qRT-PCR analysis; assay type: functional, cell-based; conditions: dose 10-50 µM
Mus musculus [36] = experiment: Inhibition of apoptosis in CCL-4 induced liver fibrosis C57/B6J mouse model at 100 mg/kg/day, ip measured after 72 hrs post last dose; assay type: functional, organism-based
Hepatocyte [37] = experiment: Inhibition of TGF-beta1 induced apoptosis in C57/B6J mouse primary hepatocytes assessed as live cells at 25 uM by Annexin-V-FITC-H and PI staining based flow cytometry analysis (reference value: 66.08 %); assay type: functional; set-up: scale not given: the % may be the effect or the level left
Hepatocyte [38] = experiment: Inhibition of TGF-beta1 induced apoptosis in C57/B6J mouse primary hepatocytes assessed as live cells by Annexin-V-FITC-H and PI staining based flow cytometry analysis (reference value: 64.40 %); assay type: functional; set-up: scale not given: the % may be the effect or the level left
Hepatocyte [39] = experiment: Inhibition of TGF-beta1 induced apoptosis in C57/B6J mouse primary hepatocytes assessed as decrease in cleaved-caspase-3 expression at 10 to 50 uM by Western blot analysis; assay type: functional, cell-based; conditions: dose 10-50 µM
Hepatocyte [40] = experiment: Inhibition of TGF-beta1 induced apoptosis in C57/B6J mouse primary hepatocytes assessed as early apoptotic cells at 25 uM by Annexin-V-FITC-H and PI staining based flow cytometry analysis (reference value: 18.71 %); assay type: functional; set-up: scale not given: the % may be the effect or the level left

## CC1CN(CC2CCN(Cc3ccccc3)CC2)C(=O)N(c2cccc(C(=N)N)c2)C1.O=C(O)C(F)(F)F (stereo unspecified)
Hepatocyte [1]
  Activity: Active
Hepatocyte [2]
  Activity: 64.46%
Hepatocyte [3]
  Activity: Active
Hepatocyte [4]
  Activity: Active
Hepatocyte [5]
  Activity: Active
Hepatocyte [6]
  Activity: 3.35%
Hepatocyte [7]
  Activity: 18.6%
Hepatocyte [8]
  Activity: 13.59%

## Oc1ccc(/C=C/c2cc(O)cc(O)c2)cc1 [RESVERATROL]
Hepatocyte [9]
  Activity: 1.49%
Mus musculus [10]
  Activity: Active
Mus musculus [11]
  Activity: Active
Hepatocyte [12]
  Activity: 2.44%
Mus musculus [13]
  Activity: Active
Hepatocyte [14]
  Activity: 11.36%
Hepatocyte [15]
  Activity: 0.64%
Hepatocyte [16]
  Activity: 7.99%
Hepatocyte [17]
  Activity: 0.95%
HepG2
  Activity: Active
Hepatocyte [18]
  Activity: 9.96%
Hepatocyte [19]
  inhibition: Active
Hepatocyte [20]
  Activity: 69.83%
Mus musculus [21]
  Activity: Active
Mus musculus [22]
  Activity: Active
Hepatocyte [23]
  Activity: 10.05%
Hepatocyte [24]
  Activity: 16.37%
Hepatocyte [25]
  Activity: 70.1%
Hepatocyte [26]
  Activity: 84.53%
Mus musculus [27]
  Activity: Active
Hepatocyte [28]
  Activity: 5.25%
Hepatocyte [29]
  Activity: 6.54%
Hepatocyte [30]
  Activity: 11.38%
Hepatocyte [31]
  Activity: 1.12%
Mus musculus [32]
  Activity: Active
Mus musculus [33]
  Activity: Active
Hepatocyte [34]
  Activity: 17.41%
Hepatocyte [35]
  Activity: Active
Mus musculus [36]
  inhibition: Active
Hepatocyte [37]
  Activity: 75.96%
Hepatocyte [38]
  Activity: 83.06%
Hepatocyte [39]
  inhibition: Active
Hepatocyte [40]
  Activity: 12.59%
